# According to ChEMBL document CHEMBL1125778, “Development of a small RGD peptide fibrinogen receptor antagonist with potent antiaggregatory activity in vitro” (J Med Chem, 1991):
# Where a SMILES comes first, the peptide text is derived from it. Bridges are numbered along the chain shown (N, C = ends). [ ]: non-standard residue; d: D form. NMeR = CN[C@@H](CCCNC(=N)N)C(=O)O; Pen = CC(C)(S)[C@H](N)C(=O)O
# Tested on: Integrin alpha-IIb/beta-3 (Canis familiaris)
# Experiment: Inhibition of canine platelet-rich plasma induced by ADP
# Design: concentration or dose not given beside the values
# Conditions: Canis lupus familiaris, concentration not given here
row,Compound,inhibition
1,CC(=O)N[C@@H]1CSSC[C@@H](C(N)=O)NC(=O)[C@H](CC(=O)O)NC(=O)CNC(=O)[C@H](CCCN=C(N)N)NC(=O)CNC1=O,100%
2,CC(=O)N[C@H]1C(=O)N[C@@H](CCCN=C(N)N)C(=O)NCC(=O)N[C@@H](CC(=O)O)C(=O)N[C@H](C(N)=O)CSSC1(C)C,100%
3,CC(=O)N[C@@H](CCCN=C(N)N)C(=O)NCC(=O)N[C@@H](CC(=O)O)C(=O)N[C@@H](Cc1ccc(O)cc1)C(N)=O (Ac-RGDY-NH2),98%
4,CC(=O)N[C@@H]1CSSC[C@H](C(N)=O)NC(=O)[C@@H](CC(=O)O)NC(=O)CNC(=O)[C@@H](CCCN=C(N)N)NC1=O,55%
5,CC(=O)N[C@H]1C(=O)N(C)[C@@H](CCCN=C(N)N)C(=O)NCC(=O)N[C@@H](CC(=O)O)C(=O)N[C@@H](C(N)=O)C(C)(C)SSC1(C)C,100%

# The remaining lines, values ahead:
row,inhibition,Compound
1,100%,CC(=O)N[C@@H](Cc1c[nH]cn1)C(=O)N[C@@H](Cc1c[nH]cn1)C(=O)N[C@@H](CC(C)C)C(=O)NCC(=O)NCC(=O)N[C@@H](C)C(=O)N[C@@H](CCCCN)C(=O)N[C@H]1CSSC(C)(C)[C@H](C(N)=O)NC(=O)[C@H](CC(=O)O)NC(=O)CNC(=O)[C@H](CCCN=C(N)N)NC1=O
2,100%,CC(=O)N[C@@H]1CSSC(C)(C)[C@H](C(N)=O)NC(=O)[C@H](CC(=O)O)NC(=O)CNC(=O)[C@H](CCCN=C(N)N)NC(=O)CNC1=O
3,57%,CC(=O)N[C@@H]1CSSC(C)(C)[C@H](C(N)=O)NC(=O)[C@@H](CC(=O)O)NC(=O)CN(C)C(=O)[C@@H](CCCN=C(N)N)NC1=O

# Molecular target: Integrin alpha-IIb/beta-3 (Homo sapiens, UniProt P05106+P08514)
# Experiment: Inhibition of 125[I] Fibrinogen binding to isolated purified human fibrinogen receptor
# Assay type: protein-complex assay
# Conditions: not given
# Integrin alpha-IIb/beta-3, sequence (P05106 27-788 limits assumed): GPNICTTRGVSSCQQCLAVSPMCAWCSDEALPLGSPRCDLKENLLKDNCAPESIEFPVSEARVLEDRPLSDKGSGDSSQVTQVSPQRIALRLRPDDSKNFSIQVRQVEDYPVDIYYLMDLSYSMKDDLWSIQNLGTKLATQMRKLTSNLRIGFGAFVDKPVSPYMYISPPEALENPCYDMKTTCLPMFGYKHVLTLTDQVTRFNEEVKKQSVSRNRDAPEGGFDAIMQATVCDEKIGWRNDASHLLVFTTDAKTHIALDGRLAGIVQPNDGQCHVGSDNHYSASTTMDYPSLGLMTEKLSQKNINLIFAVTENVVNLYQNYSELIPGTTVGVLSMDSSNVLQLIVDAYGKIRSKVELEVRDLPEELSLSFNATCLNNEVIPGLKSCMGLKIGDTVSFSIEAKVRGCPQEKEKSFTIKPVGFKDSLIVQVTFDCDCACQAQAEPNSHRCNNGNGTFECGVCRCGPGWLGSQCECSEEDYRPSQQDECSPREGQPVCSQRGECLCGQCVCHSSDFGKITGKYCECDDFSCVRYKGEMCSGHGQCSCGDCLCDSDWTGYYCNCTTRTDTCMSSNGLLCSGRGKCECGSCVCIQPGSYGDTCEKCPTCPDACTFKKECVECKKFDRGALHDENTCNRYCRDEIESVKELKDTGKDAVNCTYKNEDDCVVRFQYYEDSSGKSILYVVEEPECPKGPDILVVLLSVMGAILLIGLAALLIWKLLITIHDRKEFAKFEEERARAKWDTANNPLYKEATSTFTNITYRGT
# Integrin alpha-IIb/beta-3, sequence (P08514 32-887 limits assumed): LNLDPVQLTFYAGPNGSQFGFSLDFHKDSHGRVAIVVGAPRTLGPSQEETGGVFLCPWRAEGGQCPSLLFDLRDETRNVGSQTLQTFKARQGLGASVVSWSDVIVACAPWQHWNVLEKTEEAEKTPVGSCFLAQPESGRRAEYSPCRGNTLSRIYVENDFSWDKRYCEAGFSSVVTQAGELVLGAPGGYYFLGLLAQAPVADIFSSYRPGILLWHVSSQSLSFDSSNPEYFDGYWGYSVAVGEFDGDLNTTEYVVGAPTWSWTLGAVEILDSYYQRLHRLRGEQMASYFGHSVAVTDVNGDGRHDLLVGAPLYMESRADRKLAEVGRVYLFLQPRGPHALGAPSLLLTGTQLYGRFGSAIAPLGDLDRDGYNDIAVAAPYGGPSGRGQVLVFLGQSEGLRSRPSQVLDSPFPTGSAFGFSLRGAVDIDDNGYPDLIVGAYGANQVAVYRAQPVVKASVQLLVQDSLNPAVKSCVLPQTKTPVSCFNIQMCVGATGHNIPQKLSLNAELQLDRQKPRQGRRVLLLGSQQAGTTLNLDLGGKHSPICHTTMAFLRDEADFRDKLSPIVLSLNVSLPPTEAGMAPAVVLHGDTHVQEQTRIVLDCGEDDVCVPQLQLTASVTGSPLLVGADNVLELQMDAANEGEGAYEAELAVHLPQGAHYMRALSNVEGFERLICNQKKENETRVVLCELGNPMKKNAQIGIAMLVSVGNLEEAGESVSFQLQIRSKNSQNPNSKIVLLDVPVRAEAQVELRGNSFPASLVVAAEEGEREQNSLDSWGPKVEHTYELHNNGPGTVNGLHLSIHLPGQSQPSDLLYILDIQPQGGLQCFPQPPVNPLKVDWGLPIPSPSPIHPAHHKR
# Integrin alpha-IIb/beta-3, sequence (P08514 891-1039 limits assumed): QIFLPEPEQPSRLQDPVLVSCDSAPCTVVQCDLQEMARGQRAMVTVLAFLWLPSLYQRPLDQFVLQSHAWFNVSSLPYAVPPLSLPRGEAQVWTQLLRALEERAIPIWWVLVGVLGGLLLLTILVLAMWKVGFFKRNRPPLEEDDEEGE
row,Ki,Compound
1,58 nM,CC(=O)N[C@H]1CSSC(C)(C)[C@@H](C(N)=O)NC(=O)[C@H](CC(=O)O)NC(=O)CNC(=O)[C@H](CCCN=C(N)N)N(C)C1=O (Ac-C[NMeR]GD[Pen]-NH2; disulfide 1-5)
2,14500 nM,Ac-HHLGGAKQAGDV-OH
3,780 nM,CC(=O)N[C@H]1CSSC[C@@H](C(N)=O)NC(=O)[C@H](CC(=O)O)NC(=O)CNC(=O)[C@H](CCCN=C(N)N)NC1=O
4,5300 nM,CC(=O)N[C@H]1CSSC[C@@H](C(N)=O)NC(=O)[C@H](CO)NC(=O)[C@H](CC(=O)O)NC(=O)CNC(=O)[C@H](CCCN=C(N)N)NC1=O (Ac-CRGDSC-NH2; disulfide 1-6)
5,720 nM,CC(=O)N[C@@H]1CSSC(C)(C)[C@H](C(N)=O)NC(=O)[C@H](CC(=O)O)NC(=O)CNC(=O)[C@@H](CCCNC(=N)N)NC1=O
